The values below come from patent US6579903B2, “Klainetins and their derivatives, method for their preparation and use thereof” (Aventis Pharma Deutschland GmbH, priority 2000, dated 2003).

pIC50: −log10 of the molar value.

Data set [1] can be described thus: Solubility (characterization). The data set is classed as physicochemical.
A further data set deals with KDR (Homo sapiens, UniProt P35968). The experiment in a line: KDR kinase inhibition, phosphorylation of PLCγ1 peptide substrate. The data set is classed as biochemical. Particulars: purified enzyme, 5 μM ATP, room temperature 1 h. Here is the method: (§1) The cytostatic activities were determined by using purified enzymes in 384-well microtiter plates (coated FlashPlates, NEN Life Science). The enzyme activities were determined by means of phosphorylation of specific peptide substrates. A klainetin dilution series prepared beforehand, with concentrations of 100, 50, 25, 12.5, 6.25, 3.125, 1.5625, 0.7813, 0.3906, 0.195, 0.094, 0.047 and 0 μM, were pipetted into the wells in the appropriate order. The reaction mixture (radiolabeled ATP, buffer solution pH 7.4 and enzyme solutions) was then added followed by incubation at room temperature for 1 h.
Description of KDR reaction mixture:
Kinase buffer: 50 mM MOPS, pH7.4, 10 mM MgCl2, 2 mM DTT, 2.5 mM EGTA, 10 mM β-glycerol phosphate, 1 mM orthovanadate, and 1 mM sodium fluoride
ATP solution: 25 μCi/ml 33P-γ-ATP und 12.5 μM ATP
KDR enzyme solution: 3.5 μg/ml in kinase buffer
Wash solution: PBS (without Mg^2+, Ca^2+)
10 μl diluted klainetin solution
20 μl of enzyme solution (3.5 μg/ml; 70 ng/well)
20 μl of ATP solution (final concentration 0.5 μCi and 5 μM ATP/well)
Incubation at room temperature for 1 h, followed by washing 3× with 75 μl of wash solution and measurement in MicroBeta Counter (Wallac) for 30 sec.
(§2) The activity of the kinases (CDK4 or KDR) was meaured by incorporation of radioactive phosphate from ATP into the substrate and the inhibitory action of the klainetins (IC50) was calculated.

Data set [2] in a line: Stability (characterization). The data set is classed as physicochemical.
For another data set, the target named is Cyclin D1/CDK4 (Homo sapiens, UniProt P11802). Kind of data set: CDK4 kinase inhibition, FlashPlate phosphorylation of peptide substrate. The data set is classed as biochemical. Particulars: purified enzyme, 2 μM ATP, room temperature. The procedure: as §1
Description of CDK4 reaction mixture:
Kinase buffer: 50 mM HEPES, 10 mM MgCl2, 2.5 mM EGTA pH8.0, 10 mM β-glycerol phosphate, 1 mM orthovanadate, 1 mM sodium fluoride, and 1 mM DTT
Biotinylated peptide substrate for FlashPlate coating (1 mg/ml solution in PBS buffer)
ATP solution: 100 μCi/ml 33P-γ-ATP and 10 μM ATP
Cyclin D1/CDK4 enzyme solution: 100 mg/ml in kinase buffer
Wash solution: 3% phosphoric acid
30 μl of diluted klainetin solution, 20 μl of ATP/enzyme solution (final conc. 1 μCi 33P-γ-ATP, 2 μM ATP and 1 μg of enzyme) […]
as §2

A further data set deals with CDK2 (Homo sapiens, UniProt P24941). Kind of data set: CDK2 kinase inhibition (IC50). Particulars: purified enzyme. The data set is classed as biochemical.

Sequence of KDR (P35968 20-1356, species assumed): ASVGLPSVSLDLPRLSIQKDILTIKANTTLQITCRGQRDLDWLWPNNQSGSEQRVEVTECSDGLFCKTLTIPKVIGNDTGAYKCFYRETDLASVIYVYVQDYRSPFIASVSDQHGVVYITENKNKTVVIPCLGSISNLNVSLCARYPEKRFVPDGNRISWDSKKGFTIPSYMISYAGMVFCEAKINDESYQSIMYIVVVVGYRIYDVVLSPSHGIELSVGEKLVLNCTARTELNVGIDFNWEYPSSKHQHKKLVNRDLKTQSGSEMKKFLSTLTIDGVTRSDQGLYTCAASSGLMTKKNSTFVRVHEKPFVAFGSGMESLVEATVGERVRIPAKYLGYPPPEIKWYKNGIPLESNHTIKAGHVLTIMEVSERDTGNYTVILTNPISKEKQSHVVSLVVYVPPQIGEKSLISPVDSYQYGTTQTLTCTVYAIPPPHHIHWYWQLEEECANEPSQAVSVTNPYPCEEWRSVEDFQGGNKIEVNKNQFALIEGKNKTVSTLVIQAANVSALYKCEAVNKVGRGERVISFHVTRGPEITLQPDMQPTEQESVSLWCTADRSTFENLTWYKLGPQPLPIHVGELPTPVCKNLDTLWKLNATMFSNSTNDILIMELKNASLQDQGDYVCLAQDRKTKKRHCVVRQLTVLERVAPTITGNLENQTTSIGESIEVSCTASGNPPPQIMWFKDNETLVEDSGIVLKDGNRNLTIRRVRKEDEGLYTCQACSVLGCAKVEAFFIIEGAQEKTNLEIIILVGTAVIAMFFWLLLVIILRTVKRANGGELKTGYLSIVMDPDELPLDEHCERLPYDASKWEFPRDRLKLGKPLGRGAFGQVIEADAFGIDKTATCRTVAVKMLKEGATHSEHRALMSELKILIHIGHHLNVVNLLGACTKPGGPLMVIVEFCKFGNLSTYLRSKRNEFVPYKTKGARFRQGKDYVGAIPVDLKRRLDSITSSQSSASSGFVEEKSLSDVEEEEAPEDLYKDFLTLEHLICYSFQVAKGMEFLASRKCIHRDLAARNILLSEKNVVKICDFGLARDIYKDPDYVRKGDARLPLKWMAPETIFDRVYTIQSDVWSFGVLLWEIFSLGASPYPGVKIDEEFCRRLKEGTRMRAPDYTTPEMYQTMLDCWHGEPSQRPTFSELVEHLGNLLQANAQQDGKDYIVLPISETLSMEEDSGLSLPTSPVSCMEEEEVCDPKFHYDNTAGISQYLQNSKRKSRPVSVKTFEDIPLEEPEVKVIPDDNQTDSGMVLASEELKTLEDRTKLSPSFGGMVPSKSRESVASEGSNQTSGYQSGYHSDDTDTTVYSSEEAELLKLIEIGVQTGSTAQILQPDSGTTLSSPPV
Sequence of Cyclin D1/CDK4 (P11802 whole entry, species assumed): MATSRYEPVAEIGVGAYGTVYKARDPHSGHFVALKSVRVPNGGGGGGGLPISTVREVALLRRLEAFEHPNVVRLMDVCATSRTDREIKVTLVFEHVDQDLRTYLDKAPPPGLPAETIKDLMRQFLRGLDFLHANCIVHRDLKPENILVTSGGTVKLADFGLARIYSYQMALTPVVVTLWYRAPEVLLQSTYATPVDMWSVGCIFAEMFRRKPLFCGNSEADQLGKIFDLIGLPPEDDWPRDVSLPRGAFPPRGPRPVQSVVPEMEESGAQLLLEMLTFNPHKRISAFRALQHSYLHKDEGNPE
Sequence of Cyclin D1/CDK4 (P24385 whole entry partner, species assumed): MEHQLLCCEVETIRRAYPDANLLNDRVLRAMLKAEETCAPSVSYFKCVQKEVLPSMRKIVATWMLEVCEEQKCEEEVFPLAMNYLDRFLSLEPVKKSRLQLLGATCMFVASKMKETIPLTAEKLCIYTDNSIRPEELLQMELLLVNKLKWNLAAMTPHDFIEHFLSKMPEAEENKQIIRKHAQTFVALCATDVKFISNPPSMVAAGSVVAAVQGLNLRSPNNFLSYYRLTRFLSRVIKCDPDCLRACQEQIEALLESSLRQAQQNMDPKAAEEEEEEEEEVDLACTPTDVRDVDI

What is called pIC50 is −log10 of the IC50, conventionally taken in molar units. Low values mean a high IC50, high ones a low IC50. For the molecule `COc1c(Cc2cccc(O)c2O)c(O)cc2c1C(=O)CC(c1ccccc1)O2` (centres unmarked) [Klainetin A, klainetin A], in data set [1], the “solubility in polar organic solvents” value is “soluble”. The solubility in water entry in data set [1] is reported as “only slightly soluble”. The pIC50 is 5.16 at KDR, 5.68 on Cyclin D1/CDK4 and 4.67 against CDK2. The “stability in the alkaline and strongly acidic range” value in data set [2] (alkaline and strongly acidic range) was “unstable”. The “stability in a neutral and mildly acidic environment” value in data set [2] is “stable”.
For the molecule `COc1cc(O)c(Cc2cccc(O)c2O)c(O)c1C(=O)/C=C/c1ccccc1` [Klainetin B, klainetin B], in data set [1], the “solubility in polar organic solvents” value is “soluble”. Also, in data set [1], the solubility in water result is on record as “only slightly soluble”. The pIC50 is 5.19 at KDR, 5.94 on Cyclin D1/CDK4 and 5.22 against CDK2. Further, the “stability in the alkaline range” value in data set [2] (alkaline range) was “unstable”. In data set [2], the “stability in a neutral and mildly acidic environment” value is reported as “stable”.
